# Laboratory results from PubChem BioAssay (NCI).
#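 A five-concentration, 48-hour dose response in 96-well plates underlies each endpoint, interpolated linearly between surrounding concentrations. The concentration for full growth arrest is given as TGI.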
# Legend:
# Test in all cases: DTP human tumour cell line panel, 48 h
# [1] = tested on: DU-145 prostate
# [2] = tested on: PC-3 prostate
# [3] = tested on: CAKI-1 renal
# [4] = tested on: 786-0 renal
# [5] = tested on: A498 renal
# [6] = tested on: UO-31 renal
# [7] = tested on: M14 melanoma
# [8] = tested on: HL-60(TB) leukemia
# [9] = tested on: NCI-H226 lung
# [10] = tested on: MCF7 breast
# [11] = tested on: NCI-H522 lung
# [12] = tested on: HS 578T breast
# [13] = tested on: SK-MEL-28 melanoma
# [14] = tested on: OVCAR-3 ovarian
# [15] = tested on: RXF 393 renal
# [16] = tested on: SNB-19 CNS
# [17] = tested on: MALME-3M melanoma
# [18] = tested on: MDA-N
# [19] = tested on: EKVX NSCLC
# [20] = tested on: NCI/ADR-RES ovarian
# [21] = tested on: BT-549 breast
# [22] = tested on: UACC-62 melanoma
# [23] = tested on: SK-MEL-2 melanoma
# [24] = tested on: HOP-92 NSCLC
# [25] = tested on: NCI-H460 lung
# [26] = tested on: UACC-257 melanoma
# [27] = tested on: SNB-75 CNS
# [28] = tested on: T-47D breast
# [29] = tested on: OVCAR-4 ovarian
# [30] = tested on: MDA-MB-231 breast
# [31] = tested on: SF-295 CNS
# [32] = tested on: NCI-H23 lung
# [33] = tested on: HCT-116 colon
# [34] = tested on: IGROV1 ovarian
# [35] = tested on: OVCAR-5 ovarian
# [36] = tested on: A549 NSCLC
# [37] = tested on: KM12 colon
# [38] = tested on: SF-539 CNS
# [39] = tested on: HOP-62 NSCLC
# [40] = tested on: SF-268 CNS
# [41] = tested on: COLO 205 colon
# [42] = tested on: SK-OV-3 ovarian
# [43] = tested on: HCT-15 colon
# [44] = tested on: ACHN renal
# [45] = tested on: U251 CNS
# [46] = tested on: TK-10 renal
# [47] = tested on: MDA-MB-435
# [48] = tested on: SW-620 colon
# [49] = tested on: HT29 colon
# [50] = tested on: SN12C renal
# [51] = tested on: OVCAR-8 ovarian
# [52] = tested on: SK-MEL-5 melanoma
# [53] = tested on: LOX IMVI melanoma
# [54] = tested on: CCRF-CEM leukemia
# [55] = tested on: HCC-2998 colon
# [56] = tested on: RPMI-8226 leukemia
smiles,measurement,setting,value
CC(=O)C1(N=Nc2ccc(S(N)(=O)=O)cc2)CCOC1=O (stereo not drawn),TGI,[1],> 100 µM
same,TGI,[2],> 100 µM
same,TGI,[3],> 100 µM
same,TGI,[4],> 100 µM
same,TGI,[5],> 100 µM
same,TGI,[6],> 100 µM
same,TGI,[7],> 100 µM
same,TGI,[8],> 100 µM
same,TGI,[9],> 100 µM
same,TGI,[10],> 100 µM
same,TGI,[11],> 100 µM
same,TGI,[12],> 100 µM
same,TGI,[13],> 100 µM
same,TGI,[14],> 100 µM
same,TGI,[15],> 100 µM
same,TGI,[16],> 100 µM
same,TGI,[17],> 100 µM
same,TGI,[18],> 100 µM
same,TGI,[19],> 100 µM
same,TGI,[20],> 100 µM
same,TGI,[21],> 100 µM
same,TGI,[22],> 100 µM
same,TGI,[23],> 100 µM
same,TGI,[24],> 100 µM
same,TGI,[25],> 100 µM
same,TGI,[26],> 100 µM
same,TGI,[27],> 100 µM
same,TGI,[28],> 100 µM
same,TGI,[29],> 100 µM
same,TGI,[30],> 100 µM
same,TGI,[31],> 100 µM
same,TGI,[32],> 100 µM
same,TGI,[33],> 100 µM
same,TGI,[34],> 100 µM
same,TGI,[35],> 100 µM
same,TGI,[36],> 100 µM
same,TGI,[37],> 100 µM
same,TGI,[38],> 100 µM
same,TGI,[39],> 100 µM
same,TGI,[40],> 100 µM
same,TGI,[41],> 100 µM
same,TGI,[42],> 100 µM
same,TGI,[43],> 100 µM
same,TGI,[44],> 100 µM
same,TGI,[45],> 100 µM
same,TGI,[46],> 100 µM
same,TGI,[47],> 100 µM
same,TGI,[48],> 100 µM
same,TGI,[49],> 100 µM
same,TGI,[50],> 100 µM
same,TGI,[51],> 100 µM
same,TGI,[52],> 100 µM
same,TGI,[53],> 100 µM
same,TGI,[54],> 100 µM
S=c1nc(Cl)cc2[nH]c(Cl)cn12,TGI,[1],> 100 µM
same,TGI,[2],> 100 µM
same,TGI,[3],> 100 µM
same,TGI,[4],> 100 µM
same,TGI,[5],56.9 µM
same,TGI,[6],> 100 µM
same,TGI,[7],> 100 µM
same,TGI,[9],> 100 µM
same,TGI,[10],19.3 µM
same,TGI,[11],6.22 µM
same,TGI,[12],6.34 µM
same,TGI,[13],> 100 µM
same,TGI,[14],6.49 µM
same,TGI,[15],> 100 µM
same,TGI,[16],> 100 µM
same,TGI,[17],> 100 µM
same,TGI,[18],4.56 µM
same,TGI,[19],7.41 µM
same,TGI,[20],6.89 µM
same,TGI,[21],> 100 µM
same,TGI,[22],> 100 µM
same,TGI,[23],> 100 µM
same,TGI,[24],96.9 µM
same,TGI,[25],> 100 µM
same,TGI,[26],> 100 µM
same,TGI,[27],13.8 µM
same,TGI,[28],> 100 µM
same,TGI,[29],44.9 µM
same,TGI,[30],43.9 µM
same,TGI,[31],14.4 µM
same,TGI,[32],48.8 µM
same,TGI,[33],16.6 µM
same,TGI,[34],30.2 µM
same,TGI,[36],> 100 µM
same,TGI,[37],33.9 µM
same,TGI,[38],5.69 µM
same,TGI,[39],> 100 µM
same,TGI,[40],> 100 µM
same,TGI,[41],8.08 µM
same,TGI,[42],8.4 µM
same,TGI,[55],> 100 µM
same,TGI,[43],> 100 µM
same,TGI,[44],> 100 µM
same,TGI,[45],> 100 µM
same,TGI,[46],> 100 µM
same,TGI,[47],4.74 µM
same,TGI,[48],> 100 µM
same,TGI,[49],75.3 µM
same,TGI,[50],> 100 µM
same,TGI,[51],57.4 µM
same,TGI,[52],17.5 µM
same,TGI,[53],> 100 µM
same,TGI,[54],6.04 µM
same,TGI,[56],43.3 µM
